Measured values published in patent publication US20230310559A1, “Use of Amylase or Maltose to Treat or Prevent Neurodegeneration” (St. Jude Children's Research Hospital, Inc., priority 2020, published 2023).
“Also recorded” adds a separate entry of the source.

Key:
Type in all cases: cell-based
[1] = tested on: human cortical brain organoids; assay: Whole-mount immunostaining of human cortical brain organoids (p62, poly-ubiquitin)
Procedure: Whole-Mount Immunostaining of Human Cortical Brain Organoids. Similar to the above-referenced procedures described for Drosophila tissues, human cortical brain organoids were immunostained with the following modifications: fixation and washes were done with 0.4% TRITON⋅ X-100; fixation was carried out for 50 minutes at room temperature; and organoids were blocked for >1 hour with PBS with 0.4% TRITON X-100 and 5% bovine serum albumin (BSA) before incubation with primary antibodies.
(§1) Drug Treatment of Human Cortical Brain Organoids. An additional 0.5 mL of culture medium was added to reach the final amount of 1 mL with 0, 3, 5, 10, 20, 40, or 80 mg of maltose per mL, or with 10, 20, 40 μL of porcine alpha-Amylase (MP Biomedicals) per mL, as indicated. After culturing at 37° C. for 3 days, the organoids were kept for 7 hours at 41.5° C. for heat shock, or at 37° C. (control). Subsequently, the organoids were collected and snap frozen. The organoids were then processed as described above for the western blot analysis of detergent-soluble and detergent-insoluble fractions.
Whole-mount immunostaining of organoids was carried out following similar procedures as described above for Drosophila brains and retinas, with anti-poly-ubiquitin (FK2; Enzo Life Sciences) and anti-p62/SQSTM1 antibodies (Cell Signaling Technologies). […]

[2] = tested on: human cortical brain organoids; assay: RNA-sequencing of human cortical brain organoids
Procedure: RNA-Sequencing of Human Cortical Brain Organoids. RNA sequencing libraries for each sample were prepared with 1 μg total RNA using the Illumina TRUSEQ® RNA Sample Prep v2 Kit per the manufacturer's instructions, and sequencing was completed on the Illumina HiSeq 2000. The 100 bp paired-end reads were trimmed, filtered against quality (Phred-like Q20 or greater) and length (50 bp or longer), and aligned to a human reference sequence GRCh38 (UCSC hg38), using CLC Genomics Workbench v12.0.1 (Qiagen). For gene expression comparisons, the TPM (transcript per million) counts were obtained from the RNA-Seq Analysis tool. A total of 19749 genes with TPM greater than one in at least one sample were in the principal component analysis (PCA) and the gene expression analysis was performed using the non-parametric ANOVA using the Kruskal-Wallis and Dunn's tests on log-transformed TPM counts between three replicates of each experimental group, implemented in Partek Genomics Suite v7.0 software (Partek Inc.).
as §1

[3] = tested on: human cortical brain organoids; assay: Multielectrode array recording of human cortical brain organoids
Procedure: Multielectrode Array Recording of Human Cortical Brain Organoids. Spontaneous neuronal activity of cortical organoids was recorded on the Axion Maestro Edge multielectrode array system. Two different methods for plating and recording were optimized from two-month old and three-month old organoids, to ensure maximum contact with electrodes. Method 1 (Two-month old cortical organoids; Maltose treatment): Growth factor reduced-cell culture matrix sold under the tradename […]® (Corning) was diluted 1:3 in chilled media containing BrainPhys and 10% ES-FBS and kept on ice. D60 cortical organoids were first sliced in half using a pair of fine tweezers. Each half was then plated onto one well of a 24-well Cytoview plate (Axion Biosystems), where each well contained a grid of 16 electrodes. After placing the organoid slice onto a dry and empty well using a sterile flat spatula, 15 μL of the chilled and diluted cell culture matrix sold under the tradename […]® was added onto the slice. A P10 tip was used to position the slice to the center of the well over the grid of electrodes. Three such plates were prepared. The plates were incubated at 37° C. for 3 hours for the cell culture matrix to solidify over the organoid slices. After 3 hours, 500 μL of BrainPhys media supplemented with 100× N2 supplement, 50× B27 supplement without Vitamin A, 10 ng/ml BDNF and 10 ng/ml GDNF were added slowly to each well. Every three days, 300 μL media in each well was replaced with fresh media three days and six days after plating. Seven days after plating, the plates were treated with either control or maltose containing media; all treatment conditions were included in each of the four plates. Three days after treatment, spontaneous activity was recorded from each plate. The plates were then subjected to heat shock for 7 hours at 41.5° C. Spontaneous activity in each plate was recorded again after the heat shock. This recording was repeated after 17 hours of recovery and after 43 hours of recovery. Data was analyzed using the Neural Metric tool (Axion Biosystems).

[4] = after heat shock, compared to control-treated organoids

OC[C@H]1O[C@H](O[C@H]2[C@H](O)[C@@H](O)C(O)O[C@@H]2CO)[C@H](O)[C@@H](O)[C@@H]1O (mixture of isomers) [maltose]
p62 and ubiquitin immunoreactivity ([1]; heat-shocked organoids, compared to controls): significantly decreased | levels of p62 and poly-ubiquitinated proteins (immunostaining) ([1]; organoids, control conditions (no heat shock)): no change | expression of gene clusters involved in protein quality control (proteasome components, proteases/peptidases) ([2]; human cortical brain organoids): promoted the expression | gene expression changes induced by heat shock (RNA-seq) ([2]; human cortical brain organoids): prevented some of the gene expression changes | mRNA and proteins levels of CRYA (a-crystallin) ([2]; human cortical organoids): increased | bursts [3, 4]: more bursts | number of active electrodes [3, 4]: higher number of active electrodes | number of bursting electrodes [3, 4]: higher number of bursting electrodes | number of spikes [3, 4]: higher number of spikes | neuronal activity (number of active electrodes, bursting electrodes, network bursts) ([3]; immediately after and at 17 hours and 43 hours after heat shock): significantly preserved; also recorded: higher neuronal activity | levels of maltose effective in preserving neuronal activity ([3]; organoids after heat shock): ≤ 5 mg/mL | neuronal activity (number of active electrodes, bursting electrodes, network bursts) ([3]; steady state / pre-heat shock): not modulated
